Here are results for 14 compounds from patent US10369138B2, “Monobactam organic compounds for the treatment of bacterial infections” (Novartis AG, priority 2014, dated 2019).

The structures appear in SMILES notation. In brackets after ≈: the same amount, converted by molar mass.

The test system of test [1] is E. coli containing KPC-2. The experiment in a line: MIC by broth microdilution, E. coli containing KPC-2 (Ec KPC2 Iso). Type of test: cell-based. The conditions noted are these: Escherichia coli, read-out: Ec KPC2 Iso (MIC), E. coli containing KPC-2 (carbapenemase from Klebsiella pneumoniae). The method in brief: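 Host E. coli BW25113 pspB carrying multicopy pBAD18-kan plasmid with constitutive TEM-promoter KPC-2 expression (periplasmic signal sequence); broth microdilution per CLSI in cation-adjusted Mueller-Hinton broth, inoculum ~5×10^5 CFU/mL, compounds twofold serially diluted from DMSO masters (10% DMSO in dilution series added).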
Background: In broth dilution the organism is exposed to a series of concentrations in liquid medium.

Test [2] deals with E. coli strain 25922. The experiment in a line: MIC by broth microdilution, E. coli strain 25922. The class given is cell-based. The conditions noted are these: Escherichia coli, 25922, E. coli strain 25922; read-out: Ec 25922 (MIC). The method in brief:
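CLSI broth microdilution in cation-adjusted Mueller-Hinton broth, inoculum about 5×10^5 CFU/mL, 10% DMSO from the diluted series, 20 h at 35-37° C. MIC is the lowest concentration preventing visible growth, read by eye and at 600 nm.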

By MIC is commonly meant the smallest concentration in the dilution series that meets the test's criterion for growth inhibition. Regarding `CC(C)(O/N=C(\C(=O)N[C@@H]1C(=O)N(S(=O)(=O)O)[C@@H]1CN1CC[C@H](N)C1=O)c1csc(N)n1)C(=O)O` [Example 76, 2-(((Z)-(2-(((2R,3S)-2-(((S)-3-amino-2-oxopyrrolidin-1-yl)methyl)-4-oxo-1-sulfoazetidin-3-yl)amino)-1-(2-aminothiazol-4-yl)-2-oxoethylidene)amino)oxy)-2-methylpropanoic acid], the results for the minimal inhibitory concentration (MIC) in test [1] and in test [2] were 0.5 µg/mL (≈ 0.937 µM) and 1 µg/mL (≈ 1.87 µM), respectively.
With `CC(C)(O/N=C(\C(=O)N[C@@H]1C(=O)N(S(=O)(=O)O)[C@@H]1CN1C[C@@H](CO)OC1=O)c1csc(N)n1)C(=O)O` [Example 63, 2-(((Z)-(1-(2-aminothiazol-4-yl)-2-(((2R,3S)-2-(((S)-5-(hydroxymethyl)-2-oxooxazolidin-3-yl)methyl)-4-oxo-1-sulfoazetidin-3-yl)amino)-2-oxoethylidene)amino)oxy)-2-methylpropanoic acid], the minimal inhibitory concentration (MIC) in test [1] and in test [2] was 32 µg/mL (≈ 58.1 µM) in each case.
As for `C[N+](C)(C)CCCNCc1cnn(C[C@@H]2[C@H](NC(=O)/C(=N\OC3(C(=O)O)CC3)c3csc(N)n3)C(=O)N2S(=O)(=O)O)n1` [Example 123, 3-(((2-(((2R,3S)-3-((Z)-2-(2-aminothiazol-4-yl)-2-((1-carboxycyclopropoxy)imino)acetamido)-4-oxo-1-sulfoazetidin-2-yl)methyl)-2H-1,2,3-triazol-4-yl)methyl)amino)-N,N,N-trimethylpropan-1-aminium], the MIC in test [1] was 0.5 µg/mL; in test [2] it was 1 µg/mL.
As to `Cc1c[n+](C)ccc1-c1cn(C[C@@H]2[C@H](NC(=O)/C(=N\OC(C)(C)C(=O)O)c3csc(N)n3)C(=O)N2S(=O)(=O)O)nn1` [Example 49, (2R,3S)-3-((Z)-2-(2-aminothiazol-4-yl)-2-(((2-carboxypropan-2-yl)oxy)imino)acetamido)-2-((4-(1,3-dimethylpyridin-1-ium-4-yl)-1H-1,2,3-triazol-1-yl)methyl)-4-oxoazetidine-1-sulfonate], the MIC in test [1] turned out to be 16 µg/mL; in test [2], 2 µg/mL.
`N=C(NC1CCNCC1)c1ccc(OC[C@H](O/N=C(\C(=O)N[C@@H]2C(=O)N(S(=O)(=O)O)[C@@H]2Cn2ncc(CN)n2)c2csc(N)n2)C(=O)O)cc1` [Example 84, (S)-2-(((Z)-(2-(((2R,3S)-2-((4-(aminomethyl)-2H-1,2,3-triazol-2-yl)methyl)-4-oxo-1-sulfoazetidin-3-yl)amino)-1-(2-aminothiazol-4-yl)-2-oxoethylidene)amino)oxy)-3-(4-(N-(piperidin-4-yl)carbamimidoyl)phenoxy)propanoic acid]: the MIC in test [1] and in test [2] was 0.5 µg/mL (≈ 0.68 µM) each time.
As for `N=C(N)NC[C@@H]1CN(C[C@@H]2[C@H](NC(=O)/C(=N\OC3(C(=O)O)CC3)c3csc(N)n3)C(=O)N2S(=O)(=O)O)C(=O)O1` [Example 26, 1-(((Z)-(1-(2-aminothiazol-4-yl)-2-(((2R,3S)-2-(((R)-5-(guanidinomethyl)-2-oxooxazolidin-3-yl)methyl)-4-oxo-1-sulfoazetidin-3-yl)amino)-2-oxoethylidene)amino)oxy)-cyclopropanecarboxylic acid], the MIC in test [1] is not above 0.06 µg/mL; in test [2], 0.125 µg/mL (≈ 0.212 µM).
For the compound `CC(C)(O/N=C(\C(=O)N[C@@H]1C(=O)N(S(=O)(=O)O)[C@@H]1Cn1cc(C(=O)O)nn1)c1csc(N)n1)C(=O)O` [Example 51, 1-(((2R,3S)-3-((Z)-2-(2-aminothiazol-4-yl)-2-(((2-carboxypropan-2-yl)oxy)imino)acetamido)-4-oxo-1-sulfoazetidin-2-yl)methyl)-1H-1,2,3-triazole-4-carboxylic acid], the MIC was 16 µg/mL (≈ 29.3 µM) in test [1] and more than 64 µg/mL in test [2].
Turning to `NCCNCc1cnn(C[C@@H]2[C@H](NC(=O)/C(=N\OC3(C(=O)O)CC3)c3csc(N)n3)C(=O)N2S(=O)(=O)O)n1` [Example 102, 1-(((Z)-(2-(((2R,3S)-2-((4-(((2-aminoethyl)amino)methyl)-2H-1,2,3-triazol-2-yl)methyl)-4-oxo-1-sulfoazetidin-3-yl)amino)-1-(2-aminothiazol-4-yl)-2-oxoethylidene)amino)oxy)cyclopropanecarboxylic acid], the minimum inhibitory concentration (MIC) in test [1] and in test [2] was 0.25 µg/mL (≈ 0.437 µM) each time.
Take `NCCOC(=O)NCc1cnn(C[C@@H]2[C@H](NC(=O)/C(=N\OC3(C(=O)O)CC3)c3csc(N)n3)C(=O)N2S(=O)(=O)O)n1` [Example 133, 1-(((Z)-(2-(((2R,3S)-2-((4-((((2-aminoethoxy)carbonyl)amino)methyl)-2H-1,2,3-triazol-2-yl)methyl)-4-oxo-1-sulfoazetidin-3-yl)amino)-1-(2-aminothiazol-4-yl)-2-oxoethylidene)amino)oxy)cyclopropanecarboxylic acid]: the MIC in test [1] is 0.5 µg/mL (≈ 0.811 µM); in test [2] it was 1 µg/mL (≈ 1.62 µM).
For `CC(C)(O/N=C(\C(=O)N[C@@H]1C(=O)N(S(=O)(=O)O)[C@@H]1Cn1ccc(N)n1)c1csc(N)n1)C(=O)O` [Example 34, 2-(((Z)-(2-(((2R,3S)-2-((3-amino-1H-pyrazol-1-yl)methyl)-4-oxo-1-sulfoazetidin-3-yl)amino)-1-(2-aminothiazol-4-yl)-2-oxoethylidene)amino)oxy)-2-methylpropanoic acid], the minimum inhibitory concentration (MIC) in test [1] and in test [2] was more than 64 µg/mL in each case.
Regarding `CN(Cc1cnn(C[C@@H]2[C@H](NC(=O)/C(=N\OC3(C(=O)O)CC3)c3csc(N)n3)C(=O)N2S(=O)(=O)O)n1)C(=N)NCCCN` [Example 148, 1-(((Z)-(2-(((2R,3S)-2-((4-((3-(3-aminopropyl)-1-methylguanidino)methyl)-2H-1,2,3-triazol-2-yl)methyl)-4-oxo-1-sulfoazetidin-3-yl)amino)-1-(2-aminothiazol-4-yl)-2-oxoethylidene)amino)oxy)cyclopropanecarboxylic acid], the MIC in test [1] and in test [2] was 1 µg/mL (≈ 1.56 µM) throughout.
Take `CC(C)(O/N=C(\C(=O)N[C@@H]1C(=O)N(S(=O)(=O)O)[C@@H]1Cn1ccccc1=O)c1csc(N)n1)C(=O)O` [Example 15, 2-(((Z)-(1-(2-aminothiazol-4-yl)-2-oxo-2-(((3S,4R)-2-oxo-4-((2-oxopyridin-1(2H)-yl)methyl)-1-sulfoazetidin-3-yl)amino)ethylidene)amino)oxy)-2-methylpropanoic acid]: the MIC in test [1] amounted to 8 µg/mL (≈ 15.1 µM); in test [2], 16 µg/mL (≈ 30.3 µM).
On to `Cc1nnnn1C[C@@H]1[C@H](NC(=O)/C(=N\OC(C)(C)C(=O)O)c2csc(N)n2)C(=O)N1S(=O)(=O)O` [Example 8, 2-(((Z)-(1-(2-aminothiazol-4-yl)-2-(((2R,3S)-2-((5-methyl-1H-tetrazol-1-yl)methyl)-4-oxo-1-sulfoazetidin-3-yl)amino)-2-oxoethylidene)amino)oxy)-2-methylpropanoic acid], for which the minimum inhibitory concentration (MIC) in test [1] and in test [2] was 2 µg/mL (≈ 3.86 µM) in each case.
For the compound `N=C(NCc1cnn(C[C@@H]2[C@H](NC(=O)/C(=N\OC3(C(=O)O)CC3)c3csc(N)n3)C(=O)N2S(=O)(=O)O)n1)N[C@H]1C[C@@H](N)C1` [Example 140, 1-(((Z)-(2-(((2R,3S)-2-((4-((3-((1 s,3S)-3-aminocyclobutyl)guanidino)methyl)-2H-1,2,3-triazol-2-yl)methyl)-4-oxo-1-sulfoazetidin-3-yl)amino)-1-(2-aminothiazol-4-yl)-2-oxoethylidene)amino)oxy)cyclopropanecarboxylic acid], the minimum inhibitory concentration (MIC) in test [1] and in test [2] was 0.25 µg/mL (≈ 0.39 µM) throughout.
